The target in this test is T1, GST-tagged wild-type human CRBN protein (Homo sapiens, UniProt Q96SW2).
T1 construct: purchased Cisbio 64BDCRBNPEG
T1 sequence (Q96SW2 whole entry): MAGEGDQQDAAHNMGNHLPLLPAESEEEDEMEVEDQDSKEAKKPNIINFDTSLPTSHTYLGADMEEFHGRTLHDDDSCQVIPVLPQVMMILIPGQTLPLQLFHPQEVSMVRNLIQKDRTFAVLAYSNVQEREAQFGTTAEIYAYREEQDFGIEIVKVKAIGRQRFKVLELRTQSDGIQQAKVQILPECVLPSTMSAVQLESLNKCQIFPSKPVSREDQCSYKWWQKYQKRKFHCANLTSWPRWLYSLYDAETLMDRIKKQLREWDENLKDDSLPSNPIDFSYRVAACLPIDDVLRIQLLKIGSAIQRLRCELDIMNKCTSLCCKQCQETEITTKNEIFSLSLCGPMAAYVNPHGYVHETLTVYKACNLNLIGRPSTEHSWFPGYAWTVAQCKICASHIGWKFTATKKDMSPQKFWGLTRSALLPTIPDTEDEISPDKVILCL
Nature of the test: Cereblon Binding Assay (Cisbio Cereblon Binding Kit, TR-FRET). Conditions: TR-FRET competition with XL665-labelled Thalidomide, room temperature about 3 hours. Here is the method:
In some embodiments, the biological assay may involve evaluation of CRBN binding activity, e.g., in Cereblon Binding Kit (Cisbio, #64BDCRBNPEG).
In some embodiments, the cell line is maintained and cultured, e.g., at room temperature for about 3 hours.
In some embodiments, the Fluorescence Resonance Energy Transfer (TR-FRET) measurements of the cell line is recorded and evaluated.
Procedure for Cereblon Binding Assay. The binding to cereblon (CRBN) was determined using the Cereblon Binding Kit (Cisbio, #64BDCRBNPEG) following the manufacturer's instruction. Briefly, serially diluted compounds were incubated with GST-tagged wild-type human CRBN protein, XL665-labelled Thalidomide and Europium Cryptate labelled GST antibody at room temperature for about 3 hours. […] The readings were normalized to the control (0.5%) and the ICso was calculated by nonlinear regression (four parameters sigmoid fitted with variable slope) analysis using the GraphPad Prism 8 software.
Background: TR-FRET usually uses a lanthanide donor and a delayed reading to cut background.
One may read the IC50 as the midpoint of a concentration-inhibition curve. High values mean weaker potency, low ones greater potency. The compound `O=C1CCC(N2C(=O)c3cc4c(cc3C2=O)CC2(CNC2)C4)C(=O)N1` (stereo not shown) [Example 217] had an IC50 of over 10000 nM.

Consider `O=C1CCC(N2Cc3cc4c(cc3C2=O)CC2(CNC2)C4)C(=O)N1` (stereo not shown) [Example 218], for which the concentration for half-maximal inhibition (IC50) was 1000 to 10000 nM.

With `O=C1CCC(N2C(=O)c3ccc4c(c3C2=O)CNC4)C(=O)N1` (stereo not shown) [Example 219], the IC50 fell in the range of 1000 to 10000 nM.

`COc1c2c(cc3c1CN(C1CCC(=O)NC1=O)C3=O)CN(Cc1ccccc1)C2` (stereo not shown) [Example 220]: the IC50 was under 500 nM.

Compound `O=C1CCC(N2C(=O)c3cc4c(cc3C2=O)CN(Cc2ccc(F)cc2)CC4)C(=O)N1` (stereo not shown) [Example 221] yielded an IC50 of 500 to 1000 nM.

In turn, `O=C1CCC(N2Cc3cc4c(cc3C2=O)CN(Cc2ccc(F)cc2)C4)C(=O)N1` (stereo not shown) [Example 222] registered a half-maximal inhibitory concentration (IC50) of under 500 nM.

In turn, `O=C1CCC(N2C(=O)c3cc4c(cc3C2=O)CCN(Cc2ccc(F)cc2)CC4)C(=O)N1` (stereo not shown) [Example 223] had a half-inhibitory concentration (IC50) of 1000 to 10000 nM.

Regarding `O=C1CCC(N2C(=O)c3cc4c(cc3C2=O)CN(Cc2cccc3c2OCCO3)C4)C(=O)N1` (stereo not shown) [Example 224], the half-maximal inhibitory concentration (IC50) was under 500 nM.

Compound `O=C1CCC(N2Cc3cc4c(cc3C2=O)CN(C(=O)c2cccc3c2CCC3)C4)C(=O)N1` (stereo not shown) [Example 225] showed a 50% inhibitory concentration (IC50) of under 500 nM.

`O=C1CCC(N2Cc3cc4c(cc3C2=O)CN(C(=O)c2cccc3c2OCO3)C4)C(=O)N1` (stereo not shown) [Example 226] came in with an IC50 of under 500 nM.

`O=C1CCC(N2C(=O)c3cc4c(cc3C2=O)CN(Cc2ccc(C(F)(F)F)cc2)CCC4)C(=O)N1` (stereo not shown) [Example 227] came in with an IC50 of 500 to 1000 nM.

Turning to `O=C1CCC(N2C(=O)c3cc4c(cc3C2=O)CC(CN2CCC(Cc3ccc(F)cc3)CC2)C4)C(=O)N1` (stereo not shown) [Example 228], the IC50 is under 500 nM.

Consider `O=C1CCC(N2C(=O)c3cc4c(cc3C2=O)CC(CN2CC3(CN(Cc5ccc(F)cc5)C3)C2)C4)C(=O)N1` (stereo not shown) [Example 229], for which the IC50 is 500 to 1000 nM.

In turn, `O=C1CCC(N2Cc3cc4c(cc3C2=O)CN(C2CN(Cc3ccc(F)c(F)c3)C2)C4=O)C(=O)N1` (stereo not shown) [Example 230] showed a half-inhibitory concentration (IC50) of 500 to 1000 nM.

The compound `O=C1CCC(N2Cc3cc4c(cc3C2=O)CN(CC2CN(Cc3ccc(F)c(F)c3)C2)C4=O)C(=O)N1` (stereo not shown) [Example 231] returned a 50% inhibitory concentration (IC50) of 500 to 1000 nM.

In turn, `CCN1CC(N2Cc3cc4c(cc3C2=O)CN(C2CCC(=O)NC2=O)C4=O)C1` (stereo not shown) [Example 232] had an IC50 of 500 to 1000 nM.

In the case of `CC(=O)N1CC(N2Cc3cc4c(cc3C2=O)CN(C2CCC(=O)NC2=O)C4=O)C1` (stereo not shown) [Example 233], the IC50 lay in the range of 1000 to 10000 nM.

On to `COc1c2c(cc3c1C(=O)N(C1CCC(=O)NC1=O)C3=O)CN(CC1CN(Cc3ccc(F)cc3Cl)C1)C2` (stereo not shown) [Example 234], for which the IC50 lay within 500 to 1000 nM.

`O=C1CCC(N2Cc3cc4c(cc3C2=O)CC2(C4)CN(Cc3ccc(F)cc3)C2)C(=O)N1` (stereo not shown) [Example 235]: the IC50 was 500 to 1000 nM.

`O=C(O)CN1Cc2cc3c(cc2C1)C(=O)N(C1CCC(=O)NC1=O)C3=O` (stereo not shown) [Example 236] showed an IC50 of under 500 nM.

The compound `O=C(O)CN1Cc2cc3c(cc2C1)C(=O)N(C1CCC(=O)NC1=O)C3` (stereo not shown) [Example 237] showed a half-inhibitory concentration (IC50) of under 500 nM.

In turn, `O=C(O)CN1CCc2cc3c(cc2C1)C(=O)N(C1CCC(=O)NC1=O)C3=O` (stereo not shown) [Example 238] showed an IC50 of 1000 to 10000 nM.

Compound `O=C(O)CCN1Cc2cc3c(cc2C1)C(=O)N(C1CCC(=O)NC1=O)C3=O` (stereo not shown) [Example 239] came in with an IC50 of under 500 nM.

Turning to `O=C(O)CCCN1Cc2cc3c(cc2C1)C(=O)N(C1CCC(=O)NC1=O)C3=O` (stereo not shown) [Example 240], the IC50 was under 500 nM.

Take `O=C(O)CCN1CCc2cc3c(cc2C1)C(=O)N(C1CCC(=O)NC1=O)C3=O` (stereo not shown) [Example 241]: the IC50 lay within 500 to 1000 nM.

As to `O=C(O)CCCN1CCc2cc3c(cc2C1)C(=O)N(C1CCC(=O)NC1=O)C3=O` (stereo not shown) [Example 242], the 50% inhibitory concentration (IC50) lay in the range of 1000 to 10000 nM.

Take `O=C(O)CN1CCc2cc3c(cc2CC1)C(=O)N(C1CCC(=O)NC1=O)C3=O` (stereo not shown) [Example 243]: the IC50 was in the range of 500 to 1000 nM.

Turning to `CNC1CCC(N2Cc3cc4c(cc3C2)C(=O)N(C2CCC(=O)NC2=O)C4=O)CC1` (stereo not shown) [Example 244], the IC50 is under 500 nM.

With `O=C1CCC(N2C(=O)c3cc4c(cc3C2=O)CN(Cc2ccc(F)nc2)C4)C(=O)N1` (stereo not shown) [Example 245], the IC50 was under 500 nM.

As to `O=C1CCC(N2C(=O)c3cc4c(cc3C2=O)CN(Cc2cnc(Cl)nc2)C4)C(=O)N1` (stereo not shown) [Example 246], the IC50 lay in the range of 1000 to 10000 nM.

With `O=C1CCC(N2Cc3cc4c(cc3C2)C(=O)N(C2CCC(=O)NC2=O)C4=O)CC1` (stereo not shown) [Example 247], the IC50 was 500 to 1000 nM.

As for `NC1CCC(N2Cc3cc4c(cc3C2)C(=O)N(C2CCC(=O)NC2=O)C4=O)CC1` (stereo not shown) [Example 248], the 50% inhibitory concentration (IC50) is under 500 nM.

`O=C1CCC(N2Cc3cc4c(cc3C2)C(=O)N(C2CCC(=O)NC2=O)C4)CC1` (stereo not shown) [Example 249]: the IC50 lay in the range of 500 to 1000 nM.

Regarding `O=C1CCC(N2C(=O)c3cc4c(cc3C2=O)CN(C(=O)C2CCC3(CCNCC3)CC2)C4)C(=O)N1` (stereo not shown) [Example 250], the half-inhibitory concentration (IC50) was under 500 nM.

For the compound `O=C1CCC(N2C(=O)c3cc4c(cc3C2=O)CN(C2CCC(C(=O)O)CC2)C4)C(=O)N1` (stereo not shown) [Example 251], the IC50 lay in the range of 500 to 1000 nM.

For `O=C1CCC(C(=O)N2Cc3cc4c(cc3C2)C(=O)N(C2CCC(=O)NC2=O)C4=O)CC1` (stereo not shown) [Example 252], the half-inhibitory concentration (IC50) was under 500 nM.

For the compound `O=C1CCC(N2C(=O)c3cc4c(cc3C2=O)CN(C(=O)C2CCNCC2)C4)C(=O)N1` (stereo not shown) [Example 253], the IC50 was under 500 nM.

`O=C1CCC(N2Cc3cc4c(cc3C2=O)CN(C(=O)C2CCNCC2)C4)C(=O)N1` (stereo not shown) [Example 254] registered an IC50 of under 500 nM.

In the case of `O=C1CCC(N2C(=O)c3ccc4c(c3C2=O)CNCC4)C(=O)N1` (stereo not shown) [Example 255], the IC50 lay in the range of 1000 to 10000 nM.

As to `O=C1CCC(N2Cc3cc4c(cc3C2=O)CN(C2CCNCC2)C4=O)C(=O)N1` (stereo not shown) [Example 256], the IC50 is under 500 nM.

In turn, `O=C1CCC(N2C(=O)c3cc4c(cc3C2=O)CCNCC4)C(=O)N1` (stereo not shown) [Example 257] showed an IC50 of 1000 to 10000 nM.

For `O=C1CCC(N2C(=O)c3cc4c(cc3C2=O)CNCC4)C(=O)N1` (stereo not shown) [Example 258], the IC50 lay in the range of 1000 to 10000 nM.

`O=C1CCC(N2C(=O)c3cc4c(cc3C2=O)CN([C@H]2C[C@H](C(=O)O)C2)C4)C(=O)N1` (stereo partly shown) [Example 259] returned a concentration for half-maximal inhibition (IC50) of 500 to 1000 nM.

`O=C1CCC(N2C(=O)c3cc4c(cc3C2=O)CN(C2CNC2)C4)C(=O)N1` (stereo not shown) [Example 260] gave an IC50 of under 500 nM.

`O=C1CCC(N2C(=O)c3cc4c(cc3C2=O)CN(C2CC3(CCNCC3)C2)C4)C(=O)N1` (stereo not shown) [Example 261] displayed an IC50 of 1000 to 10000 nM.

With `O=C1CCC(N2C(=O)c3cc4c(cc3C2=O)CN(C2CCCC23CCNCC3)C4)C(=O)N1` (stereo not shown) [Example 262], the half-inhibitory concentration (IC50) was 1000 to 10000 nM.

In turn, `O=C1CCC(N2Cc3cc4c(cc3C2=O)CN(CC2CCNCC2)C4)C(=O)N1` (stereo not shown) [Example 263] returned an IC50 of 500 to 1000 nM.

Compound `O=C1CCC(N2C(=O)c3cc4c(cc3C2=O)CN(C2CCNC2)C4)C(=O)N1` (stereo not shown) [Example 264] had an IC50 of under 500 nM.

As for `O=C1CCC(N2C(=O)c3cc4c(cc3C2=O)CN(C2CCNCC2)C4)C(=O)N1` (stereo not shown) [Example 265], the concentration for half-maximal inhibition (IC50) is 500 to 1000 nM.

`O=C1CCC(N2C(=O)c3cc4c(cc3C2=O)CN(C2CCC3(CCNCC3)CC2)C4)C(=O)N1` (stereo not shown) [Example 266] yielded an IC50 of under 500 nM.

Take `O=C1CCC(N2Cc3cc4c(cc3C2=O)CN(C2CCNCC2)C4)C(=O)N1` (stereo not shown) [Example 267]: the IC50 is 1000 to 10000 nM.

`COC1(CN2Cc3cc4c(cc3C2)C(=O)N(C2CCC(=O)NC2=O)C4=O)CCN(C(=O)OC(C)(C)C)CC1` (stereo not shown) [Example 268] gave an IC50 of 500 to 1000 nM.

`CC1(CN2Cc3cc4c(cc3C2)C(=O)N(C2CCC(=O)NC2=O)C4=O)CCN(C(=O)OC(C)(C)C)CC1` (stereo not shown) [Example 269]: the IC50 is under 500 nM.

`CC(C)(C)OC(=O)N1CCC(F)(CN2Cc3cc4c(cc3C2)C(=O)N(C2CCC(=O)NC2=O)C4=O)CC1` (stereo not shown) [Example 270] showed an IC50 of 500 to 1000 nM.

The compound `O=C1CCC(N2C(=O)c3cc4c(cc3C2=O)CN(CC2CN(c3ccc(C(=O)O)cc3)C2)C4)C(=O)N1` (stereo not shown) [Example 271] returned an IC50 of under 500 nM.

`O=C1CCC(N2C(=O)c3cc4c(cc3C2=O)CN(CC2CCN(c3ccc(C(=O)O)cc3)CC2)C4)C(=O)N1` (stereo not shown) [Example 272] returned a concentration for half-maximal inhibition (IC50) of under 500 nM.

Turning to `O=C1CCC(N2Cc3cc4c(cc3C2=O)CNC4)C(=O)N1` (stereo not shown) [Example 274], the half-maximal inhibitory concentration (IC50) lay within 1000 to 10000 nM.

With `COc1c2c(cc3c1CN(C1CCC(=O)NC1=O)C3=O)CNC2` (stereo not shown) [Example 275], the 50% inhibitory concentration (IC50) lay in the range of 500 to 1000 nM.
